For test [1], the target named is T1, B16F10 cellular tyrosinase (Mus musculus, UniProt P11344).
T1 construct: host or cells: B16F10 cells
T1 sequence (P11344 19-533): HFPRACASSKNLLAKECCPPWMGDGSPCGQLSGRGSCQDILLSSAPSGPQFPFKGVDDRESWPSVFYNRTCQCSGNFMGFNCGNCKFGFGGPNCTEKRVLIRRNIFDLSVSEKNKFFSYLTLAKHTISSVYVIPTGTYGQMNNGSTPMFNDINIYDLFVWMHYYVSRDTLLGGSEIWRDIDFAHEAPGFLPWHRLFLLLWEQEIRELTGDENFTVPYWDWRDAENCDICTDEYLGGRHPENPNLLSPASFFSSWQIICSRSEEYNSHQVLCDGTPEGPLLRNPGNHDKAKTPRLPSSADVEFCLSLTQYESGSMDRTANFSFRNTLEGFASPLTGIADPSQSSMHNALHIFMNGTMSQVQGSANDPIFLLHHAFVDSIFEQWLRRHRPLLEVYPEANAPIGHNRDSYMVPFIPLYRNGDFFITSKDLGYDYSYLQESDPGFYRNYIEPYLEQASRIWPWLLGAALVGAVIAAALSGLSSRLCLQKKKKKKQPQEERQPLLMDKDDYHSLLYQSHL
Description: Cellular tyrosinase activity assay in B16F10 cells stimulated with IBMX plus α-MSH. The format is cell-based, murine. The following applies: 72 h. As to the method: Analogs 1, 3, and 5 were exposed to B16F10 cells at various concentrations (20, 10, 5, and 0 µM) before exposure to IBMX (200 µM; 3-isobutyl-1-methylxanthine) and α-MSH (1 µM; α-melanocyte-stimulating hormone). After incubation (72 h), B16F10 cellular tyrosinase activity was determined. […] It was examined whether the cellular tyrosinase inhibition of the BMTTZD analogs could influence B16F10 cellular melanin contents.
Effects on B16F10 tyrosinase inhibition were evaluated as previously described. A 6-well plate containing 1 × 10^5 B16F10 cells/well was cultivated for 23 h under conditions identical to those of the cell culture. […] The cells were cultivated for 72 h. After washing 2 times with PBS, the cells were lysed in a 100 µL lysis buffer, including phenylmethylsulfonyl fluoride (5 µL; 1 mM), Triton X-100 (5 µL; 1%), and phosphate buffer (90 µL; 50 mM (pH 6.5)). After 30 min incubation at −80 °C, the cell lysates were centrifuged at 4 °C for 30 min. The supernatants (80 µL) of the lysates were moved to each well of a microplate and mixed with 20 µL 10 mM L-dopa.

A further test deals with mushroom tyrosinase (Agaricus bisporus, UniProt C7FF04). As to the kind of experiment: Kinetic study of mushroom tyrosinase inhibition (Lineweaver–Burk and Dixon plots). It counts as biochemical. Here is the method: The initial rate of dopachrome generation was examined at various BMTTZD analog concentrations (0, 1.5, 3, and 6 µM for analog 1; 0, 2, 4, and 8 µM for analogs 2 and 5; and 0, 0.05, 0.1, and 0.2 µM for 3) with 0.5, 1, 2, 4, 8, or 16 mM L-dopa as substrates using mushroom tyrosinase. Plotting the reciprocal of the dopachrome formation rate against the inverse of the L-dopa concentration produced Lineweaver–Burk plots (Figure 2). Each Lineweaver–Burk plot created four straight lines with different slopes. For analogs 1 and 3, the four straight lines met at a point on the y-axis, whereas for analogs 2 and 5, the four straight lines converged at a point in the second quadrant.
The Dixon plots produced lines that met in the second quadrant. The x-coordinate of the convergence position represents the inhibition constant (Ki) of the ligand.
Lineweaver–Burk (L-B) plots were acquired for the kinetic analysis of analogs against mushroom tyrosinase as previously described. In brief, 10 µL of a solution of DMSO and BMTTZD analogs 1–3 or 5 (final concentrations: 0, 1.5, 3, and 6 µM for analog 1; 0, 2, 4, and 8 µM for analogs 2 and 5; and 0, 0.05, 0.1, and 0.2 µM for analog 3) in each well of a 96-well plate was mixed with 20 µL of aqueous mushroom tyrosinase solution (200 units/mL) and 170 µL of an aqueous substrate mixture (various concentrations of L-dopa (final concentrations: 16, 8, 4, 2, 1 and 0.5 mM) and 17.2 mM sodium phosphate buffer (pH 6.5)). During incubation (15 min at 37 °C), the increase in the well absorbance (ΔOD475/min) was calculated at 1 min intervals utilizing a VersaMax® reader.

Chain of mushroom tyrosinase (C7FF04 1-392): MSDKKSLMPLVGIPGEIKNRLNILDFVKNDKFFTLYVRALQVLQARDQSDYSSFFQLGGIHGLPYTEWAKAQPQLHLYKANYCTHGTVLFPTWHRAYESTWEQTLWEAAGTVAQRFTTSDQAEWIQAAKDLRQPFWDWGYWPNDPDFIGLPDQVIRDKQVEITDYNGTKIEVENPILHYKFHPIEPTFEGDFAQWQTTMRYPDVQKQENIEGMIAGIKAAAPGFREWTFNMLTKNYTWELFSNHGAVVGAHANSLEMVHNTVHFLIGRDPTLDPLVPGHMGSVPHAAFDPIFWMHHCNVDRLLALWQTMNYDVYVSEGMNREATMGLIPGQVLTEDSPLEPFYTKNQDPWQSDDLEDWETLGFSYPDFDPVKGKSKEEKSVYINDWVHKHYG

By Ki is commonly meant a dissociation constant, usually derived from enzyme kinetics or from competition with a known ligand. As to `CN1C(=O)/C(=C/c2ccc(O)cc2O)SC1=S` [Analog 3, (Z)-5-(2,4-Dihydroxybenzylidene)-3-methyl-2-thioxothiazolidin-4-one], the “effect on stimulator-induced cellular tyrosinase activity” value in test [1] (5, 10, 20 µM, IBMX plus α-MSH) was “concentration-dependently and significantly reduced”. The “cellular tyrosinase inhibition compared with kojic acid (20 µM)” value in test [1] (analog at 10 µM) is recorded as “slightly more strongly than kojic acid”; in test [1] (analog at highest concentration tested (20 µM)) it was “stronger inhibitory effects than kojic acid”. Besides, on mushroom tyrosinase (substrate L-dopa 0.5–16 mM), the “type of tyrosinase inhibition (Lineweaver–Burk plots)” value is listed as “competitive inhibitors”. The Ki at mushroom tyrosinase (substrate L-dopa, read-out: inhibition constant (Ki) from Dixon plots) worked out at 0.047 µM.

For the origin of these results see article PMC11206987, “Investigation of the Efficacy of Benzylidene-3-methyl-2-thioxothiazolidin-4-one Analogs with Antioxidant Activities on the Inhibition of Mushroom and Mammal Tyrosinases” (Molecules, 2024).
